# According to paper PMC4320596, “Cytotoxicity effect of degraded and undegraded kappa and iota carrageenan in human intestine and liver cell lines” (BMC Complementary and Alternative Medicine, 2014):
# Entries after “also recorded” stand apart in the source; their conditions may differ.
# How the values were obtained:
# Type in all cases: cell-based, human
# [1] = test system: HepG2 cells; test: DNA fragmentation by agarose gel electrophoresis, HepG2; settings: 1% agarose gel
# Procedure: Caco-2 and HepG2 cells treated with degraded FGKC, DKC and CGKC were lysed with lysis buffer (10 mM Tris–HCl, 5 mM EDTA, […], 0.2% SDS) and incubated at 60°C for 5 min. The RNA in each sample was digested with 10 μL of RNase at 37°C for 1 hour, and proteinase K (more than 3 U uL^−1) was added before incubating at 50°C for an additional 1.5 h. NaCl (5 M) was then added, and the samples were incubated on ice for 5 min to precipitate the protein. The cells were centrifuged for 15 min at highest speed at 4°C, after which supernatant was collected, and an equal volume of isopropanol was added to precipitate the DNA. Then, each sample was centrifuged again at 10,000 g for 10 min at 4°C. Supernatants were discarded, and the pellets were washed with 70% cold ethanol. The DNA sample was left to dry at room temperature before adding 1× TE buffer. Electrophoresis was carried out in a 1.0% (w/v) agarose gel for 1.5 h at 70 V. The gel was examined under UV transillumination following ethidium bromide staining to determine the extent of apoptotic DNA fragmentation.
# [2] = test system: Fa2N-4 cells; test: Morphological observation under an inverted microscope, Fa2N-4; settings: 72 h; degraded and TAM at 72 h IC50, undegraded at highest concentration
# Procedure: (§1) Approximately 2×10^5 cells were seeded in 2 mL of culture medium in 6-well plates (BD Labware, England) and incubated with 5% CO2 at 37°C for 24 h. The cells were then treated with degraded FGKC, DKC and CGKC at the appropriate concentrations to produce 50% cell viability at 72 hours as pre-determined by the MTT assay. For undegraded carrageenan, the highest concentration with longest treatment period (72 hours) was used to test on the cells. […] The morphology of the treated cells was observed under an inverted microscope at 200× magnification. The observed morphology was compared to the morphology of untreated cells.
# [3] = test system: HepG2 cells; test: Morphological observation under an inverted microscope, HepG2; settings: 72 h; degraded and TAM at 72 h IC50, undegraded at highest concentration
# Procedure: as §1
# [4] = test system: FHs 74 Int cells; test: Morphological observation under an inverted microscope, FHs 74 Int; settings: 72 h; degraded and TAM at 72 h IC50, undegraded at highest concentration
# Procedure: as §1
# [5] = test system: PCNA, MKI67 and survivin gene expression in HepG2 cells; test: RT-PCR gene expression analysis, HepG2; settings: 72 h, degraded and tamoxifen at IC50, undegraded at 2000 μg mL^−1
# Procedure: Reverse transcription polymerase chain reaction (RT-PCR) was used to analyze the presence of transcribed mRNA for cell proliferation gene marker. […] The extracted RNA was dissolved in DEPC-treated water. The RNA concentration and sample purity was determined using spectrophotometer (Bio Photometer plus, Eppendorf). Two steps RT-PCR were conducted where 1 μg of total RNA was used in the first strand cDNA synthesis using RevertAid First Strand cDNA Synthesis Kit (ThermoScientific, USA). Subsequent PCR reaction was done utilizing Mastercyler Gradient (Eppendorf, Germany). The expression of cell proliferation markers, e.g. PCNA, MKI67 and BIRC5 or known as survivin were analyzed with GAPDH gene acting as the endogenous control. […] PCR amplification were under the following conditions: initial denaturation at 95°C for 2 min, denaturation at 95°C for 1 min, primer annealing as stated in Table 1, extension at 72°C for 45 second, and final extension at 72°C for 5 min. […] The separated DNA fragments were visualized by ethidium bromide staining and photographed using the Alpha Imaging System (Alpha Innotech, San Leandro, CA, USA) under UV transillumination.
# [6] = test system: HepG2 cells; test: Acridine orange-ethidium bromide (AO/EtBr) staining, HepG2; settings: 72 h; degraded k-carrageenan
# Procedure: After the cells were harvested by trypsinisation, they were washed with PBS. A 25 μL sample of cells was stained with 10 μL of a mixture (1:1) of acridine orange and ethidium bromide solution. The concentration of AO/EtBr are […] in 1× PBS. After staining, the cells were viewed under a fluorescence microscope at 200× magnification (Leica DM 2500).
smiles,measurement,setting,value
"CC/C(=C(\c1ccccc1)c1ccc(OCCN(C)C)cc1)c1ccccc1 [TAM, Tamoxifen]","DNA fragmentation (DNA ladder), HepG2",[1],fragmented
same,"Cell morphology before staining, Fa2N-4",[2],cell shrinkage
same,"Cell morphology before staining, HepG2",[3],cell shrinkage
same,"Cell morphology before staining, FHs 74 Int",[4],cell shrinkage
same,"MKI67 gene expression, HepG2",[5],lower than control; also recorded: undetectably low
same,"PCNA gene expression, HepG2",[5],lower than control
same,"survivin gene expression, HepG2",[5],lower than control; also recorded: not expressed
same,"Mode of cell death by AO/EtBr staining, HepG2",[6],showed apoptosis
